Target: Beta-2 adrenergic receptor (Homo sapiens) (UniProt P07550)
Sequence (P07550 whole entry, looked up): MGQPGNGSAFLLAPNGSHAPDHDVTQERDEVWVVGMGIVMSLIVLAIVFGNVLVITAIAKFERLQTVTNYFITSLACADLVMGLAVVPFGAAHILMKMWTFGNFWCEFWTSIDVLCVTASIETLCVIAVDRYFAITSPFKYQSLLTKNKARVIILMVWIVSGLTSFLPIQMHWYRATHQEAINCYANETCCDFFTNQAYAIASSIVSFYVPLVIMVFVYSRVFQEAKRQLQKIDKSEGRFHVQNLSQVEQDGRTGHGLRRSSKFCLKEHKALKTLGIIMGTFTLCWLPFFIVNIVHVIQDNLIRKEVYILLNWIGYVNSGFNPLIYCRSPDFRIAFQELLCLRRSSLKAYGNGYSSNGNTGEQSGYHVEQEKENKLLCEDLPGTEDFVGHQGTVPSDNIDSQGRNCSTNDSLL
Description: Binding affinity to inactive/G protein-uncoupled human beta2-AR by immobilized artificial membrane HPLC analysis

Structure (SMILES)	log K
CC(C)(C)NCC(O)COc1cccc2[nH]c(C#N)cc12 (racemic)	2.9
CC(C)(C)NCC(O)COc1cccc2c1CC(O)C(O)C2 (mixture of isomers)	1.7
